{
  "source": "BindingDB's records for doi:10.1021/jm950720u",
  "about": "(Tohoku College of Pharmacy, 1996)",
  "molecular_target": "T1, Aromatase (Homo sapiens, UniProt P11511)",
  "T1 sequence (P11511 whole entry)": "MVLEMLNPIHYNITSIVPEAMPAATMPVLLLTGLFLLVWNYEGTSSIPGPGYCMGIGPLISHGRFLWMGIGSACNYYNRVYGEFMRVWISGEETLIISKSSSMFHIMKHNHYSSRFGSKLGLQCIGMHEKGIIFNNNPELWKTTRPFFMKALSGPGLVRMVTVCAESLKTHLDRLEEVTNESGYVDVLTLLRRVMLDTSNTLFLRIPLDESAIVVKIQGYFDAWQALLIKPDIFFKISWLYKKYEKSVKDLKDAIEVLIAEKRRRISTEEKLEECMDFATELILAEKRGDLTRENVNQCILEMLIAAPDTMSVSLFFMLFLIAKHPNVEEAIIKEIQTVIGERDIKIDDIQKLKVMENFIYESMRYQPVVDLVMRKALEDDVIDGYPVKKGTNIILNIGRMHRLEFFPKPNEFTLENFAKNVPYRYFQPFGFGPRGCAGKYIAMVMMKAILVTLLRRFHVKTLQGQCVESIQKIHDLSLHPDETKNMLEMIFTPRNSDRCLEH",
  "assay": "Aromatase Assay",
  "conditions": "pH 7.5; 37 °C",
  "protocol": "The enzyme activity was assayed by measuring the 3H-labeled H2O formed from [1beta-3H] Androstenedione during aromatization. After incubation, the reaction was terminated by CHCl3 extraction and centrifugation. Aliquots of the water phase were assayed for the presence of 3H2O by counting using a liquid scintillation spectrometer.",
  "data": [
    {"smiles": "C[C@]12CCC(=O)C=C1CCC1C2CC[C@]2(C)C(=O)CCC12", "note": "(stereo partly drawn) [[1beta-3H] androstenedione]", "values": [
      {"measurement": "IC50", "value": 0.3, "unit": "µM"},
      {"measurement": "Ki", "value": 0.02, "unit": "µM"}
    ]}
  ]
}
